Measured values: ChEMBL document CHEMBL5096156, “A Review of Progress in Histone Deacetylase 6 Inhibitors Research: Structural Specificity and Functional Diversity” (J Med Chem, 2021)

Tests used:
[1] = biological target: T1, Protein deacetylase HDAC6 (Homo sapiens, UniProt Q9UBN7); assay: Inhibition of HDAC6 (unknown origin)
T1 sequence (Q9UBN7 whole entry): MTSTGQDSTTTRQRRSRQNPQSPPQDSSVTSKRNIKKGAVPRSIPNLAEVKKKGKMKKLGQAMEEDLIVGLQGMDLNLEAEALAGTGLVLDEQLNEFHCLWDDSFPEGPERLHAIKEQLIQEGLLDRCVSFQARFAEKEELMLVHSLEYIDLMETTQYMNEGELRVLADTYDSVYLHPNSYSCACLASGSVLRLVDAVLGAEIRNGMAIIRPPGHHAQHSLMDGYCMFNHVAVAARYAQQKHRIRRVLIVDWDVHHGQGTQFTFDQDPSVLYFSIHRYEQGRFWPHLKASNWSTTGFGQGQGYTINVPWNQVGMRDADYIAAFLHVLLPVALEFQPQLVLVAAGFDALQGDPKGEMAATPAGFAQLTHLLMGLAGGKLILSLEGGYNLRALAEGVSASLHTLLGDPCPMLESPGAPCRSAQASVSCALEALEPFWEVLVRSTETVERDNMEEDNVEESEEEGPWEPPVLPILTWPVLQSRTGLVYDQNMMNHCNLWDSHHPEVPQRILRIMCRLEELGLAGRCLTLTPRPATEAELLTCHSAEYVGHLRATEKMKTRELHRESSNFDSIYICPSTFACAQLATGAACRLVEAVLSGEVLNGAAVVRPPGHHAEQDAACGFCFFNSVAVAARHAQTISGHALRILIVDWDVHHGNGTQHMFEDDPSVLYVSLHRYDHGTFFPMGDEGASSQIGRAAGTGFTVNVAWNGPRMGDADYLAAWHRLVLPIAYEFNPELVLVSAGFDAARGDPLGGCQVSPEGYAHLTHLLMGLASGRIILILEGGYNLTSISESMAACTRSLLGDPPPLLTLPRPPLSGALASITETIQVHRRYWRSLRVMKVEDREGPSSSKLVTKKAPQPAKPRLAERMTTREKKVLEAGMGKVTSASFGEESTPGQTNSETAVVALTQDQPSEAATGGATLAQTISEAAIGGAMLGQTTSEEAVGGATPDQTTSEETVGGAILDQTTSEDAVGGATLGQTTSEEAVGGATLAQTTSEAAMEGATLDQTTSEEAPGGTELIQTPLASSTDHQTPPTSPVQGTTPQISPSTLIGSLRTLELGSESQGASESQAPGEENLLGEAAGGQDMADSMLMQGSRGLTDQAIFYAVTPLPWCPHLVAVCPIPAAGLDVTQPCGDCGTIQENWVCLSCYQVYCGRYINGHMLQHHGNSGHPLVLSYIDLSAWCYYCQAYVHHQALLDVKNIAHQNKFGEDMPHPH

[2] = biological target: T2, Histone deacetylase 1 (Homo sapiens, UniProt Q13547); assay: Inhibition of HDAC1 (unknown origin)
[3] = biological target: T1, Protein deacetylase HDAC6; assay: Inhibition of human recombinant HDAC6 using BML-AK511 as substrate incubated for 60 mins by fluorimetric assay
[4] = biological target: Heat shock protein HSP 90-alpha (Homo sapiens) (UniProt P07900); assay: Inhibition of recombinant HSP90 alpha (unknown origin) at 50 uM by fluorescence polarization competitive binding assay
[5] = biological target: T3, Protein deacetylase HDAC6 (Homo sapiens) (UniProt Q9UBN7); assay: Inhibition of recombinant HDAC6 (unknown origin) using […] fluorogenic peptide as substrate at 50 uM incubated for 1 hr by microplate reader assay
T3 sequence (whole entry): T1 sequence (Q9UBN7 whole entry)

[6] = biological target: T3, Protein deacetylase HDAC6 (Homo sapiens); assay: Inhibition of recombinant HDAC6 (unknown origin) using […] fluorogenic peptide as substrate at 5 uM incubated for 1 hr by microplate reader assay
[7] = biological target: T4, Histone deacetylase 3 (Homo sapiens, UniProt O15379); assay: Inhibition of human recombinant HDAC3 incubated for 45 mins by microplate reader assay
[8] = biological target: Histone deacetylase 4 (Homo sapiens, UniProt P56524); assay: Inhibition of human recombinant HDAC4 incubated for 45 mins by microplate reader assay
[9] = biological target: T4, Histone deacetylase 3; assay: Inhibition of full length human recombinant HDAC3 expressed in baculovirus infected Sf9 cells using RHKKAc fluorogenic peptide as substrate incubated for 2 hrs
[10] = biological target: T5, Polyamine deacetylase HDAC10 (Homo sapiens, UniProt Q969S8); assay: Inhibition of full length human recombinant HDAC10 expressed in baculovirus infected Sf9 cells using RHKKAc fluorogenic peptide as substrate incubated for 2 hrs
T5 sequence (Q969S8 whole entry): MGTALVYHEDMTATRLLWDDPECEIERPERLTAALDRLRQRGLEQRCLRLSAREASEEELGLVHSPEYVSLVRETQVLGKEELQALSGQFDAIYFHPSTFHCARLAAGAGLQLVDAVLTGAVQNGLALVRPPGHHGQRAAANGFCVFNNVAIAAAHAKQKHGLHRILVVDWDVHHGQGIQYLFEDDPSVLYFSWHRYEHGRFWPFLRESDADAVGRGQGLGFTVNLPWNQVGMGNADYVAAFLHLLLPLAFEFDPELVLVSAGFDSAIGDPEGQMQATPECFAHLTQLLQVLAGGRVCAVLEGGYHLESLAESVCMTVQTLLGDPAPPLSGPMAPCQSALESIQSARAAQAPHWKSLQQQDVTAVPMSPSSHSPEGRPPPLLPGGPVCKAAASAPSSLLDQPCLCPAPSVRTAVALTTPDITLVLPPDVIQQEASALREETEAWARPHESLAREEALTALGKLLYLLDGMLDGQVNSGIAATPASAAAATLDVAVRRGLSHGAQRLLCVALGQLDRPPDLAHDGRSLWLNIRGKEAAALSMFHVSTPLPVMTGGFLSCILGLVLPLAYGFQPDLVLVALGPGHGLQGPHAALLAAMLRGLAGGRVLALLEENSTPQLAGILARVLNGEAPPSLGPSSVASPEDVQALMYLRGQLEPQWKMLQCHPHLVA

[11] = biological target: T2, Histone deacetylase 1; assay: Inhibition of full length human recombinant HDAC1 expressed in baculovirus infected Sf9 cells using RHKKAc fluorogenic peptide as substrate incubated for 2 hrs
[12] = biological target: T6, Histone deacetylase 2 (Homo sapiens, UniProt Q92769); assay: Inhibition of full length human recombinant HDAC2 expressed in baculovirus infected Sf9 cells using RHKKAc fluorogenic peptide as substrate incubated for 2 hrs
[13] = biological target: T2, Histone deacetylase 1; assay: Inhibition of human recombinant HDAC1 using ZMAL -Z-(Ac)Lys-AMC fluorogenic substrate incubated for 30 mins by microplate reader assay
[14] = biological target: T1, Protein deacetylase HDAC6; assay: Inhibition of human recombinant HDAC6 using ZMAL -Z-(Ac)Lys-AMC fluorogenic substrate incubated for 30 mins by microplate reader assay
[15] = biological target: T5, Polyamine deacetylase HDAC10; assay: Inhibition of full length human recombinant HDAC10 incubated for 30 to 60 mins by HDAC-Glo I/II assay
[16] = biological target: T6, Histone deacetylase 2; assay: Inhibition of full length human recombinant HDAC2 incubated for 30 to 60 mins by HDAC-Glo I/II assay
[17] = biological target: T7, Histone deacetylase 8 (Homo sapiens, UniProt Q9BY41); assay: Inhibition of full length human recombinant HDAC8 incubated for 30 to 60 mins by HDAC-Glo I/II assay
T7 sequence (Q9BY41 whole entry): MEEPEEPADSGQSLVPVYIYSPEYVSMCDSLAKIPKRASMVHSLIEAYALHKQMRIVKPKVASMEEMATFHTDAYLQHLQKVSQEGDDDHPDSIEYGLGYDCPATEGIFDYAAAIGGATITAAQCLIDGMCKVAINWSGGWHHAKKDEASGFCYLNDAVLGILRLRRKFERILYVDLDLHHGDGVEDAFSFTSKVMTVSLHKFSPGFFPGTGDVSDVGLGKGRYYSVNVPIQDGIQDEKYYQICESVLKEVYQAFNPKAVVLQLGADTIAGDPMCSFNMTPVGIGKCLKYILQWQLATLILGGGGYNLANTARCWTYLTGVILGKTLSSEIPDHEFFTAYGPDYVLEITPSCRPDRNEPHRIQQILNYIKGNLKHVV

[18] = biological target: T8, Histone deacetylase 11 (Homo sapiens, UniProt Q96DB2); assay: Inhibition of full length human recombinant HDAC11 incubated for 30 to 60 mins by HDAC-Glo I/II assay
T8 sequence (Q96DB2 whole entry): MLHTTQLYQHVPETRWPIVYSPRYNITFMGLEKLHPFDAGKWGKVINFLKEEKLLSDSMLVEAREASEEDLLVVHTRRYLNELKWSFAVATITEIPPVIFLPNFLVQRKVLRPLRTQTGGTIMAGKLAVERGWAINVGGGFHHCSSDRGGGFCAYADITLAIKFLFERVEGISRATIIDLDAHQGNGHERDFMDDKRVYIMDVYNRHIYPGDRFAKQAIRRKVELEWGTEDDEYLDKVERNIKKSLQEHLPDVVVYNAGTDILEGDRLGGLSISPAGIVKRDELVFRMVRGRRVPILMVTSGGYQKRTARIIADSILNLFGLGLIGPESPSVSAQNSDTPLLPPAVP

[19] = biological target: T4, Histone deacetylase 3; assay: Inhibition of full length human recombinant HDAC3 incubated for 30 to 60 mins by HDAC-Glo I/II assay
[20] = biological target: T1, Protein deacetylase HDAC6; assay: Inhibition of full length human recombinant HDAC6 incubated for 30 to 60 mins by HDAC-Glo I/II assay
[21] = biological target: T2, Histone deacetylase 1; assay: Inhibition of full length human recombinant HDAC1 incubated for 30 to 60 mins by HDAC-Glo I/II assay
[22] = biological target: Histone deacetylase 5 (Homo sapiens, UniProt Q9UQL6); assay: Inhibition of full length human recombinant HDAC5 using Ac-LGK(TFA)-AMC fluorogenic peptide as substrate incubated for 2 hrs by microplate reader assay
[23] = biological target: T9, Histone deacetylase 7 (Homo sapiens, UniProt Q8WUI4); assay: Inhibition of full length human recombinant HDAC7 using Ac-LGK(TFA)-AMC fluorogenic peptide as substrate incubated for 2 hrs by microplate reader assay
T9 sequence (Q8WUI4 whole entry): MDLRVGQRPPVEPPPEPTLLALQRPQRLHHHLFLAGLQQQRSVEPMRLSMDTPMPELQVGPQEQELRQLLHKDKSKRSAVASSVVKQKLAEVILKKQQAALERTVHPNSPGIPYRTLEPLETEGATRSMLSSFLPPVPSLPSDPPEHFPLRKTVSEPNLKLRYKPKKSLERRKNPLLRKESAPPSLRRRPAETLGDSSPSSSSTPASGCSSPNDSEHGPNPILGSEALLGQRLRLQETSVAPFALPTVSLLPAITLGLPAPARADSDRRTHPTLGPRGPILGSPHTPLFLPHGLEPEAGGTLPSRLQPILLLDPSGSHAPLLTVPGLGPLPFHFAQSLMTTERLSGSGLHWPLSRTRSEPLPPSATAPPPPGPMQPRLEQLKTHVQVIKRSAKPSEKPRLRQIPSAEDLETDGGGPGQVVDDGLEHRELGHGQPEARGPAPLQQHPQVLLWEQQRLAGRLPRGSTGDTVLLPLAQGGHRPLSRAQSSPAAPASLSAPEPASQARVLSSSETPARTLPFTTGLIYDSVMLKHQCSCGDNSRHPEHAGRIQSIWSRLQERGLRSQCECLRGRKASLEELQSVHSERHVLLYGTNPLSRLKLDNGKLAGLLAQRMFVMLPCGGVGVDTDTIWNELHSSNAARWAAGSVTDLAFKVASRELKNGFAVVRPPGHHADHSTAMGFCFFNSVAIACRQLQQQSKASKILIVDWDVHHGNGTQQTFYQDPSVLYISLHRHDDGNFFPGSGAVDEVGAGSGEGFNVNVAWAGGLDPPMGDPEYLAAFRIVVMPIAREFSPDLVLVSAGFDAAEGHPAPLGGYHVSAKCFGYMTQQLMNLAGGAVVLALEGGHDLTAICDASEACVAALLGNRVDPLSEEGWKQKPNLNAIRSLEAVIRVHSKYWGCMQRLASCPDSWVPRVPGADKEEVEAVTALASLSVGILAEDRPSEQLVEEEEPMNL

[24] = biological target: T8, Histone deacetylase 11; assay: Inhibition of full length human recombinant HDAC11 using RHKKAc-AMC fluorogenic peptide as substrate incubated for 2 hrs by microplate reader assay
[25] = biological target: T7, Histone deacetylase 8; assay: Inhibition of full length human recombinant HDAC8 using RHKKAcKAc-AMC fluorogenic peptide as substrate incubated for 2 hrs by microplate reader assay
[26] = biological target: T4, Histone deacetylase 3

T4 sequence (O15379 whole entry): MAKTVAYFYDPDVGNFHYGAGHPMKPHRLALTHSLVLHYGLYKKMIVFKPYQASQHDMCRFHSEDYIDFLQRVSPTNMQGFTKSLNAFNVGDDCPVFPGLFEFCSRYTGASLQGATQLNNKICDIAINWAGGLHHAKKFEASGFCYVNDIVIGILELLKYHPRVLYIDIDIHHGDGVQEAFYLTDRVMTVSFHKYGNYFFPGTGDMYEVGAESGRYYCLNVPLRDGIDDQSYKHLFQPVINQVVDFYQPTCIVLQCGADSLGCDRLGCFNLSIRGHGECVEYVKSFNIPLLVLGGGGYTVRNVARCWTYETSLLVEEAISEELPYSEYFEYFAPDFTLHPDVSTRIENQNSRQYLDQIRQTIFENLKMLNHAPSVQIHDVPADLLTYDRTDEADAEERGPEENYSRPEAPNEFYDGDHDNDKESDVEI
T2 sequence (Q13547 whole entry): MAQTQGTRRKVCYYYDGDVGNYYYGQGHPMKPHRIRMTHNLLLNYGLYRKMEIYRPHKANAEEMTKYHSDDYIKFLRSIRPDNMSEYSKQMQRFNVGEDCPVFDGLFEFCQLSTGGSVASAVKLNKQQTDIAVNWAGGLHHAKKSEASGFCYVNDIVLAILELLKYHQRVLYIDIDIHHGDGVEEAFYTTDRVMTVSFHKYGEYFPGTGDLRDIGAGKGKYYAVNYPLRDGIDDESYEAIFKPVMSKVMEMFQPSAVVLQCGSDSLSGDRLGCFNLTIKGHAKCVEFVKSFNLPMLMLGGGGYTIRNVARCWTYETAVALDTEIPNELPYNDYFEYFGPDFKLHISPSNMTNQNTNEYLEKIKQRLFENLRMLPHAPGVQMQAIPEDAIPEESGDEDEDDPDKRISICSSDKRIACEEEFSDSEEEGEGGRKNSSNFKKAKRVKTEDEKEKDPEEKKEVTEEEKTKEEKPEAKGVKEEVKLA
T6 sequence (Q92769 whole entry): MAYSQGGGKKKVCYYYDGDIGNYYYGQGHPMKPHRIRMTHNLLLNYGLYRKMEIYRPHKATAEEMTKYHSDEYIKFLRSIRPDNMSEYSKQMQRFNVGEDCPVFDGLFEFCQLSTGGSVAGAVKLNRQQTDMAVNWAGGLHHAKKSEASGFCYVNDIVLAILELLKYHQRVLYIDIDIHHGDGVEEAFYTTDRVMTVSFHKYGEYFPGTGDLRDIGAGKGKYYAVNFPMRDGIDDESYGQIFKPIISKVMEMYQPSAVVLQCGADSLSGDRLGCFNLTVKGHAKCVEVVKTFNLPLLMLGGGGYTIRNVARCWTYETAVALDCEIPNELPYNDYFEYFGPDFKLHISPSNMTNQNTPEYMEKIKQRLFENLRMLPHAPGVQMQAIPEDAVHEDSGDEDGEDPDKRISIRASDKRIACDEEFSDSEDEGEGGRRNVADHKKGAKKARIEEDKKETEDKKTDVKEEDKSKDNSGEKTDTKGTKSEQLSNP
Chain of Histone deacetylase 5 (Q9UQL6 whole entry): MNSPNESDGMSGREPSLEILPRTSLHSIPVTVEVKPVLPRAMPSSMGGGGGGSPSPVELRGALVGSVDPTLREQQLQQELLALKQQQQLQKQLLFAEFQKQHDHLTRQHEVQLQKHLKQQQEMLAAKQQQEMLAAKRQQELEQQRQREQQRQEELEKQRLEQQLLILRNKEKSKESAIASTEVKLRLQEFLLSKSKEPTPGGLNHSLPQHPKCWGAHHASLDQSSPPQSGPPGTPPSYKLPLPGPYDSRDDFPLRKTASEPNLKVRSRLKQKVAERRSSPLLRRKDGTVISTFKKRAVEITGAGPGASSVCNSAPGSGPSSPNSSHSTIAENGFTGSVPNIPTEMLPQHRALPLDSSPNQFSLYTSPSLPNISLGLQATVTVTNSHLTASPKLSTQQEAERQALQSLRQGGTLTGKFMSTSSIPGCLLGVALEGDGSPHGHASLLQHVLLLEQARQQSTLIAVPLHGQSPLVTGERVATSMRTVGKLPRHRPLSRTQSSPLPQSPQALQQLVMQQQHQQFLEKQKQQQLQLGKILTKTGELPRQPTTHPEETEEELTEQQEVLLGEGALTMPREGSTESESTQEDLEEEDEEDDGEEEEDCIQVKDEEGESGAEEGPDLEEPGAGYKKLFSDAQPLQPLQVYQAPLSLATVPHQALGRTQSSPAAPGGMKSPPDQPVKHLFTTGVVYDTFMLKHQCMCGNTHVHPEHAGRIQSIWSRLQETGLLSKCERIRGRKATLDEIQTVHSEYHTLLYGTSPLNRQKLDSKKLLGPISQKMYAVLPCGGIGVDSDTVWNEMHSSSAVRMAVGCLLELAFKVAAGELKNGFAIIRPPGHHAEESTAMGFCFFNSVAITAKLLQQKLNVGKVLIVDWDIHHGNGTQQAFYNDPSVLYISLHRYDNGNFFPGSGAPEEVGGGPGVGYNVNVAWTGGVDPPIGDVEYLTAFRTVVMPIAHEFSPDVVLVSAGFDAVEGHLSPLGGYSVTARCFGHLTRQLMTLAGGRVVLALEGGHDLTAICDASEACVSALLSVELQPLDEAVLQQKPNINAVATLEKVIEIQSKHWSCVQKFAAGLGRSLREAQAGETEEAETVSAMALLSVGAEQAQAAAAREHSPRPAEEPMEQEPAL
Chain of Histone deacetylase 4 (P56524 whole entry): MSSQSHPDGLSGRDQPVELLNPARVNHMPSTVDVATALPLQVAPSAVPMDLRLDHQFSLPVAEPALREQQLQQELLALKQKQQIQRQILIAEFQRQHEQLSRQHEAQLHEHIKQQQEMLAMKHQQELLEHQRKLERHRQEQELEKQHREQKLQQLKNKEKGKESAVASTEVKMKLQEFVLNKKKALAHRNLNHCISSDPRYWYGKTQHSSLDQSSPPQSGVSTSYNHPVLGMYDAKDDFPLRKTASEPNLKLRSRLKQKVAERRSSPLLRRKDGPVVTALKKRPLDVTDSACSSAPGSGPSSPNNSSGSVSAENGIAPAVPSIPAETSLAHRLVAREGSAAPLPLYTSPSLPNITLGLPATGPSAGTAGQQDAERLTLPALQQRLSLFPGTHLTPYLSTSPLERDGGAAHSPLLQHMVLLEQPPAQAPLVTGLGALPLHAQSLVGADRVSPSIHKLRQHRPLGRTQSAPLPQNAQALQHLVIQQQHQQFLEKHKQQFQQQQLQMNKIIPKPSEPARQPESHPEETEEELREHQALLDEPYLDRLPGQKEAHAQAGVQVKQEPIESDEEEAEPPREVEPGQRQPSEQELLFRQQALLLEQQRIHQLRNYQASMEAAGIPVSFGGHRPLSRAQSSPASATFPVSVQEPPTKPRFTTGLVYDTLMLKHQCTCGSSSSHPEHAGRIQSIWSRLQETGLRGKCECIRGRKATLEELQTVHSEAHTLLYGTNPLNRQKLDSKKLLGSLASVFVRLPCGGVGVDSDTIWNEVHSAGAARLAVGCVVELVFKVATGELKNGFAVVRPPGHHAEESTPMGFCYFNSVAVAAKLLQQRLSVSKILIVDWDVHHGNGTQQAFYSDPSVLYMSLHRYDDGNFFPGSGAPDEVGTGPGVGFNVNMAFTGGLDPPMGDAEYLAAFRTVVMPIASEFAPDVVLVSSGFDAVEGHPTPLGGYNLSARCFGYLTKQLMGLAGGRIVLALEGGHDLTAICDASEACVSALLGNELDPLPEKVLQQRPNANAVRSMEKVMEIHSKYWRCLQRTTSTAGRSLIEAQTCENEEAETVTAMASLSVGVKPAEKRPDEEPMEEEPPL

## CCN(CC)Cc1ccc(Cn2c(=O)c(OCc3ccc(C(=O)NO)cc3)c(-c3ccccc3)c3ccccc32)cc1
[1]
  IC50: 6.9 nM
[2]
  IC50: 322 nM

## O=S(=O)(N1CCN(C2COC2)CC1)N(Cc1ccc(-c2nnc(C(F)(F)F)o2)cn1)c1ccc(F)c(Cl)c1
[3]
  IC50: 14 nM

## Cc1nc(N)nc(COC(=O)c2cccc(-c3cc(C(F)(F)F)on3)c2)n1
[4]
  inhibition: 32%
[5]
  inhibition: 62%
[6]
  inhibition: 53%

## O=C(NO)c1ccc(CC(=O)N(CCO)c2ccccc2)cc1
[7]
  IC50: > 10000 nM
[8]
  IC50: 1700 nM

## CC(C)(C)OC(=O)Nc1cccc(-c2cc(C(=O)NCCc3cc(C(=O)NO)no3)no2)c1
[9]
  IC50: > 50000 nM
[10]
  IC50: > 50000 nM
[11]
  IC50: > 50000 nM
[12]
  IC50: > 50000 nM

## CCCC1=C(Nc2ccc(C(=O)NO)cc2)C2N=CC=CC2=N1 (stereo not drawn)
[13]
  IC50: 2200 nM
[14]
  IC50: 58 nM

## COc1ccc2c3c(cccc13)C(=O)N(Cc1ccc(C(=O)NO)cc1)C2=O
[15]
  IC50: 375 nM
[16]
  IC50: 162 nM
[17]
  IC50: > 30000 nM
[18]
  IC50: > 30000 nM
[19]
  IC50: 64 nM
[20]
  IC50: 0.1 nM
[21]
  IC50: 108 nM

## CCN(CC)Cc1ccc(Cn2c(=O)c(OCc3ccc(C(=O)NO)cc3)c(-c3cccnc3)c3ccccc32)cc1
[1]
  IC50: 11.5 nM
[2]
  IC50: 319 nM

## O=C(NO)c1ccc(CN2CCCc3cc(Cl)ccc32)cc1
[22]
  IC50: 4070 nM
[23]
  IC50: 4550 nM
[24]
  IC50: 5720 nM
[25]
  IC50: 3720 nM
[26]
  IC50: 29500 nM
